This note sets out measurements from article PMC12036875, “Mitochondria-targeting natural product rhein conjugated with dichloroacetate as the dual inhibitor of glycolysis and oxidative phosphorylation to off energize cancer cells and induce ROS storm” (Theranostics, 2025).

Each structure is given as a SMILES string.

One assay has as its system 4T1 tumor. In words: In vivo antitumor effect, 4T1 tumor xenograft model. The settings on record: for tumor H&E and TUNEL staining: 20 mg/kg oral; for tumor H&E and TUNEL staining / tumor growth compared with vehicle group: 24 days; for tumor growth compared with vehicle group: oral gavage daily, n = 5. Further details: species or system Balb/c mice. As for the experimental part: The antitumor efficiency of Rhein-DCA conjugate in vivo was explored using the female Balb/c mice with 4T1 tumor xenografts model. Briefly, 4T1-tumor bearing mice were randomly divided into vehicle, rhein, DCA, R + D and Rhein-DCA conjugate groups when the tumor became apparent (n = 5). Mice were treated daily with vehicle (2.85% anhydrous ethanol / 10% cremophor / 0.02% 0.1 M HCl / 87.15% saline) and rhein, DCA, R + D and Rhein-DCA conjugate (20 mg/kg) by oral gavage for 24 days. The body weight and tumor volume of mice were monitored and recorded every two days. […] The photograph and the weight information of all excised tumor xenografts further visually confirmed the antitumor effect of Rhein-DCA conjugate in vivo (Figure 6C-D). […] Due to suppression of tumor growth, the survival of mice treated with Rhein-DCA conjugate was improved in contrast to vehicle group (Figure S22).
Balb/c female mice (6 weeks) and Sprague-Dawley (SD) rats were purchased from Hubei provincial laboratory animal research center (Wuhan, P. R. China). All related animal experiments were approved by the Animal Welfare Committee of the Animal Experiment Center of Wuhan University. All Balb/c mice were shaved two days in advance and then subcutaneously injected with 4T1 cells (5 × 10^6 cells in 50 μL of PBS per mouse) into the back of the right leg. The 4T1 tumor bearing mice were randomly divided into five groups (5 mice per group) which containing vehicle, rhein, DCA, R + D and Rhein-DCA groups when the tumor volumes reached about 100~120 mm^3. The tumor size was calculated with the following formula:
Subsequently, mice were orally treated with vehicle (2.85% anhydrous ethanol / 10% cremophor / 0.02% HCl (0.1 M) / 87.15% saline) and rhein, DCA, R + D and Rhein-DCA (20 mg/kg, suspended in 2.85% anhydrous ethanol / 10% cremophor / 0.02% HCl (0.1 M) / 87.15% saline) every day. The body weight and tumor size changes of each mouse were measured and recorded every two days.
After 24 days, the mice were euthanized, and then tumors were excised to photographing and weighting. The tumors in each group were performed with TUNEL (green fluorescence) and H&E assay. In addition, immunohistochemical staining was conducted on the tumor tissue to determine the pPDHA1-Ser^293 protein level. Besides, immunofluorescence staining was used to detect the expression of HMGB1 protein in the tumor.

A further assay has as its system 4T1 cells. Description: RNA sequencing and analysis (DEGs, GSEA). Format: cell-based, Mouse. The settings on record: 6.25 μM, 12 h, RNA-seq. The protocol:
To understand the effect of Rhein-DCA conjugate on the energy flow of glycolysis in cancer cells, we performed RNA sequencing analysis on 4T1 cell lines to analyze the genome. After various treatments for 12 h, all samples were clustered via principal component analysis (PCA) (Figure S12). […] Furthermore, the DEGs involved in glycolysis pathway of kyoto encyclopedia of genes and genomes (KEGG) databases were analyzed (Figure 2G). […] But as a pyruvate analogue, DCA led to the inactivation of PDK1 by binding to the pyruvate-binding pocket of PDK1 protein, together with down-regulation of PDK1 gene, thus leading more prominent restraint of glycolysis.
We next investigated whether the OXPHOS route would be further undermined by Rhein-DCA conjugate when the glycolysis was blocked. […] Thus, it was imperative to simultaneously halt glycolysis and OXPHOS to induce energy obstruction and apoptosis.
4T1 cells were seeded in 10 cm culture dishes and cultured until the confluency reached approximately 80%. The cells were treated with PBS, DCA, rhein, and Rhein-DCA conjugate (at a concentration of 6.25 μM) for 12 h. After that, the cells were collected and suspended in TRIzol Reagent for RNA sequencing. All samples were sent to Shanghai Majorbio Bio-pharm Biotechnology Co., Ltd. (Shanghai, P. R. China) for detection. Total RNA was extracted from 4T1 cells and was measured using the nanodrop-2000. The quality of RNA was evaluated by agarose gel electrophoresis and analyzed with Agilent5300. cDNA libraries were constructed according to the Illumina stranded mRNA prep, Ligation (USA) protocol. The DNA was further enriched by PCR amplification and purified by 2% Low Range Ultra Agarose. Clusters were generated by Bridge PCR on the cBot after being quantified by Qubit 4.0, and sequenced with NovaSeq X Plus platform (PE150). The differential expression analysis of various gene expressions was performed using DESeq2. The GO functional enrichment and KEGG pathway analysis were conducted on Goatools and Python scipy software.

Assay [1] relates to tumor-associated macrophages in 4T1 tumors. In words: Tumor-associated macrophages detection (flow cytometry). Format: in vivo, Balb/c mice. The conditions noted are these: primary 4T1 tumors; for M1 macrophages (CD80+ in CD11b+ cells) / M2 macrophages (CD206+ in CD11b+ cells): 20 mg/kg oral, 24 days; for M1 macrophages (CD80+ in CD11b+ cells): vehicle 5.8%; for M2 macrophages (CD206+ in CD11b+ cells): vehicle 36.5%. As for the experimental part:
To further investigate the immunomodulatory effects of the Rhein-DCA conjugate, we analyzed TAMs by flow cytometry, where CD11b and CD80 antibodies were labeled for M1-phenotype macrophages (Figure 7D), CD11b and CD206 antibodies were labeled for M2-phenotype macrophages (Figure 7E).
The macrophages within the tumor microenvironment of tumor tissues were further analyzed. Tumor tissues were minced into small pieces and then digested in a solution containing 1 mg/mL of collagenase IV, 0.1 mg/mL of hyaluronidase and 0.1 mg/mL of DNAase I at 37 °C for 1.5 h. The supernatants containing single cells were collected by filtering through 200 mesh filters. Cells were obtained by centrifugation and further blocked with anti-CD16/32 (1 μg/100 μL) for 10 min in an ice bath. Thereafter, FITC anti-mouse CD11b (1 μg/100 μL) and PE anti-mouse CD80 (1 μg/100 μL) antibodies were employed to stain the cells in an ice bath for 20 min. After that, the cells were collected and fixed with 4%-paraformaldehyde at room temperature for 20 min, and then stained with APC anti-mouse CD206 antibody (0.5 μg/100 μL, in 1 × Fix/Perm buffer) at room temperature in the dark for 20 min. Finally, cells were analyzed with flow cytometry after being resuspended in 1 × Perm/Wash buffer.
(In flow cytometry, cells or beads pass a laser one at a time.)

As to `O=C(OCCOC(=O)C(Cl)Cl)c1cc(O)c2c(c1)C(=O)c1cccc(O)c1C2=O` [Rhein-DCA], the “tumor H&E and TUNEL staining” value with 4T1 tumor was “more extensive tissue necrosis and considerable cell apoptosis”. Besides, the “survival of mice in contrast to vehicle group” value in the assay with 4T1 tumor (20 mg/kg, oral) was “improved”. Further, in the assay on 4T1 tumor (20 mg/kg), the “tumor growth compared with vehicle group” value is reported as “significant inhibition”. Also, the PDK1 gene expression entry in the assay with 4T1 cells is “significant down-regulation”. Besides, in assay [1], the “M1 macrophages increase vs vehicle” value was determined as 1.8 fold, the “M2 macrophages reduction vs vehicle” value came to 9.4 fold, the “M1 macrophages (CD80+ in CD11b+ cells)” value is given as 10.3% and the “M2 macrophages (CD206+ in CD11b+ cells)” value was determined as 3.9%.

Turning to `O=C(O)C(Cl)Cl` [DCA, Dichloroacetate], the “tumor H&E and TUNEL staining” value with 4T1 tumor is “mild apoptosis and necrosis”. In addition, the “tumor growth compared with vehicle group” value in the assay with 4T1 tumor (20 mg/kg) is given as “slight inhibition”. For the same molecule, the PDK1 gene expression entry in the assay on 4T1 cells was “down-regulated”. Besides, in assay [1], the “M1 macrophages (CD80+ in CD11b+ cells)” value was 7.7% and the “M2 macrophages (CD206+ in CD11b+ cells)” value stood at 13.6%.

On to `O=C(O)c1cc(O)c2c(c1)C(=O)c1cccc(O)c1C2=O` [Rhein, 4,5-dihydroxyanthraquinone-2-carboxylic acid], for which the “tumor H&E and TUNEL staining” value in the assay on 4T1 tumor is “mild apoptosis and necrosis”. Besides, the “tumor growth compared with vehicle group” value in the assay with 4T1 tumor (20 mg/kg) was “slight inhibition”. Also, the PDK1 gene expression result in the assay with 4T1 cells is given as “down-regulation”. In assay [1], the “M1 macrophages (CD80+ in CD11b+ cells)” value was 6.0% and the “M2 macrophages (CD206+ in CD11b+ cells)” value is reported as 16.6%.
